Read-outs that look alike come from different tables or passages of the source.
Experiments:
intrinsic pathway = experiment: Activated clotting time (ACT) in dog blood after IV or IT anticoagulant; format: in vivo; settings: for ACT LA: Left Atrium
Experimental: To assess the efficacy of anticoagulants delivered via intratracheal (IT) inhalation, four different anticoagulants were tested in a dog study. PK as well as biomarkers of blood in the Left Atrium (LA) and Coronary Sinus (CS) were monitored. These locations were chosen as these are the sites whereby clot formation occurs that leads to Myocardial Infarction or results in stroke. These drugs and doses were selected to represent a wide spectrum of anticoagulant classes. One anticoagulant was tested in one dog on each arm of this study. Activated clotting time (ACT), measures the time in seconds needed for whole blood to clot upon exposure to an activator of an intrinsic pathway by the addition of such as factor XII activators. Measurements were performed in the blood collected from Left Atrium (LA) and in the Coronary sinus (CS)—the targets for stroke prevention and Myocardial Infarction (MI), respectively.

extrinsic system = experiment: Prothrombin Time (PT) in dog blood after IV or IT anticoagulant; format: in vivo; settings: for PTCS: Coronary Sinus; for PT LA: Left Atrium
Experimental: (§1) To assess the efficacy of anticoagulants delivered via intratracheal (IT) inhalation, four different anticoagulants were tested in a dog study.
(§2) PK as well as biomarkers of blood in the Left Atrium (LA) and Coronary Sinus (CS) were monitored. These locations were chosen as these are the sites whereby clot formation occurs that leads to Myocardial Infarction or results in stroke.
(§3) These drugs and doses were selected to represent a wide spectrum of anticoagulant classes. One anticoagulant was tested in one dog on each arm of this study.
(§4) Factor Xa inhibition; Prothrombin Time (PT): measures the integrity of the extrinsic system as well as factors common to both systems; and Activated Partial Thromboplastin Time (aPTT or PTT): measures the integrity of the intrinsic system and the common components and factor-Xa inhibition.
(§5) Measurements were performed in the blood collected from Left Atrium (LA) and in the Coronary sinus (CS)—the targets for stroke prevention and Myocardial Infarction (MI), respectively.

intrinsic system = experiment: Activated Partial Thromboplastin Time (aPTT or PTT) in dog blood after IV or IT anticoagulant; format: in vivo; settings: for PTTCS: Coronary Sinus; for PTT LA: Left Atrium
Experimental: as §1, §2, §3, §4, §5

[1] = Dog study summary: effect of inhaled anticoagulant on tested biomarkers; format: in vivo; settings: inhaled (IT)
Experimental: as §1, §2, §3
The standard laboratory tests commonly used to evaluate the efficacy of anticoagulants are the following:
The first test, ACT, was the key in the management of ACS. The latter three tests provided information regarding the prevention of clot formation and growth of an existing clot. The table below summarizes the measurements performed for each anticoagulant in the study.

[2] = cited from earlier work
[3] = IT Bivalirudin 2 mg/kg, 0 min (baseline)
[4] = IT Bivalirudin 8 mg/kg, 0 min (baseline)
[5] = IV Bivalirudin 2 mg/kg, 0 min (baseline)

Substance: Bivalirudin
- effect on ACT (intrinsic pathway; IT (inhaled)): NO effect
- effect on ACT (intrinsic pathway; IT (inhaled), listed as bivalirudin): no prolongation
- ACT LA (intrinsic pathway; [3]): 90 s
- ACT LA (intrinsic pathway; IT Bivalirudin 2 mg/kg, 1 min): 95 s
- ACT LA (intrinsic pathway; IT Bivalirudin 2 mg/kg, 3 min): 95 s
- ACT LA (intrinsic pathway; IT Bivalirudin 2 mg/kg, 5 min): 101 s
- ACT LA (intrinsic pathway; IT Bivalirudin 2 mg/kg, 10 min): 101 s
- ACT LA (intrinsic pathway; IT Bivalirudin 2 mg/kg, 15 min): 95 s
- ACT LA (intrinsic pathway; IT Bivalirudin 2 mg/kg, 30 min): 95 s
- ACT LA (intrinsic pathway; IT Bivalirudin 2 mg/kg, 60 min): 95 s
- ACT LA (intrinsic pathway; [4]): 78 s
- ACT LA (intrinsic pathway; IT Bivalirudin 8 mg/kg, 1 min): 95 s
- ACT LA (intrinsic pathway; IT Bivalirudin 8 mg/kg, 3 min): 89 s
- ACT LA (intrinsic pathway; IT Bivalirudin 8 mg/kg, 5 min): 90 s
- ACT LA (intrinsic pathway; IT Bivalirudin 8 mg/kg, 10 min): 89 s
- ACT LA (intrinsic pathway; IT Bivalirudin 8 mg/kg, 15 min): 90 s
- ACT LA (intrinsic pathway; IT Bivalirudin 8 mg/kg, 30 min): 90 s
- ACT LA (intrinsic pathway; IT Bivalirudin 8 mg/kg, 60 min): 89 s
- effect on ACT (intrinsic pathway; IV): prolonged
- ACT LA (intrinsic pathway; [5]): 106 s
- ACT LA (intrinsic pathway; IV Bivalirudin 2 mg/kg, 1 min): 242 s
- ACT LA (intrinsic pathway; IV Bivalirudin 2 mg/kg, 3 min): 214 s
- ACT LA (intrinsic pathway; IV Bivalirudin 2 mg/kg, 5 min): 203 s
- ACT LA (intrinsic pathway; IV Bivalirudin 2 mg/kg, 10 min): 174 s
- ACT LA (intrinsic pathway; IV Bivalirudin 2 mg/kg, 15 min): 168 s
- ACT LA (intrinsic pathway; IV Bivalirudin 2 mg/kg, 30 min): 135 s
- ACT LA (intrinsic pathway; IV Bivalirudin 2 mg/kg, 60 min): 106 s
- effect on PT (extrinsic system; IT (inhaled)): NO effect
- PTCS (extrinsic system; [3]): 6.75 s
- PTCS (extrinsic system; IT Bivalirudin 2 mg/kg, 3 min): 5.45 s
- PTCS (extrinsic system; IT Bivalirudin 2 mg/kg, 15 min): 9.3 s
- PTCS (extrinsic system; IT Bivalirudin 2 mg/kg, 60 min): 6.3 s
- PT LA (extrinsic system; [3]): 6.1 s
- PT LA (extrinsic system; IT Bivalirudin 2 mg/kg, 1 min): 6 s
- PT LA (extrinsic system; IT Bivalirudin 2 mg/kg, 3 min): 5.4 s
- PT LA (extrinsic system; IT Bivalirudin 2 mg/kg, 5 min): 5.8 s
- PT LA (extrinsic system; IT Bivalirudin 2 mg/kg, 10 min): 6.2 s
- PT LA (extrinsic system; IT Bivalirudin 2 mg/kg, 15 min): 5.7 s
- PT LA (extrinsic system; IT Bivalirudin 2 mg/kg, 30 min): 5.8 s
- PT LA (extrinsic system; IT Bivalirudin 2 mg/kg, 60 min): 7.2 s
- PTCS (extrinsic system; [4]): 6.5 s
- PTCS (extrinsic system; IT Bivalirudin 8 mg/kg, 3 min): 5.5 s
- PTCS (extrinsic system; IT Bivalirudin 8 mg/kg, 15 min): 7 s
- PTCS (extrinsic system; IT Bivalirudin 8 mg/kg, 60 min): 5.5 s
- PT LA (extrinsic system; [4]): 6.4 s
- PT LA (extrinsic system; IT Bivalirudin 8 mg/kg, 1 min): 6.1 s
- PT LA (extrinsic system; IT Bivalirudin 8 mg/kg, 3 min): 6.9 s
- PT LA (extrinsic system; IT Bivalirudin 8 mg/kg, 5 min): 6.3 s
- PT LA (extrinsic system; IT Bivalirudin 8 mg/kg, 10 min): 7 s
- PT LA (extrinsic system; IT Bivalirudin 8 mg/kg, 15 min): 6.7 s
- PT LA (extrinsic system; IT Bivalirudin 8 mg/kg, 30 min): 6.6 s
- PT LA (extrinsic system; IT Bivalirudin 8 mg/kg, 60 min): 5.9 s
- effect on PT (extrinsic system; IV): prolonged
- PTCS (extrinsic system; [5]): 5.8 s
- PTCS (extrinsic system; IV Bivalirudin 2 mg/kg, 3 min): 25 s
- PTCS (extrinsic system; IV Bivalirudin 2 mg/kg, 15 min): 17.2 s
- PTCS (extrinsic system; IV Bivalirudin 2 mg/kg, 60 min): 6 s
- PT LA (extrinsic system; [5]): 5.8 s
- PT LA (extrinsic system; IV Bivalirudin 2 mg/kg, 1 min): 34.6 s
- PT LA (extrinsic system; IV Bivalirudin 2 mg/kg, 3 min): 28.8 s
- PT LA (extrinsic system; IV Bivalirudin 2 mg/kg, 5 min): 20.8 s
- PT LA (extrinsic system; IV Bivalirudin 2 mg/kg, 10 min): 17.4 s
- PT LA (extrinsic system; IV Bivalirudin 2 mg/kg, 15 min): 12.1 s
- PT LA (extrinsic system; IV Bivalirudin 2 mg/kg, 30 min): 7.6 s
- PT LA (extrinsic system; IV Bivalirudin 2 mg/kg, 60 min): 6.4 s
- effect on aPTT (intrinsic system; IT (inhaled)): NO effect
- PTTCS (intrinsic system; [3]): 8.4 s
- PTTCS (intrinsic system; IT Bivalirudin 2 mg/kg, 3 min): 120 s
- PTTCS (intrinsic system; IT Bivalirudin 2 mg/kg, 15 min): 120 s
- PTTCS (intrinsic system; IT Bivalirudin 2 mg/kg, 60 min): 10.7 s
- PTT LA (intrinsic system; [3]): 8.4 s
- PTT LA (intrinsic system; IT Bivalirudin 2 mg/kg, 1 min): 8.3 s
- PTT LA (intrinsic system; IT Bivalirudin 2 mg/kg, 3 min): 9.1 s
- PTT LA (intrinsic system; IT Bivalirudin 2 mg/kg, 5 min): 8.8 s
- PTT LA (intrinsic system; IT Bivalirudin 2 mg/kg, 10 min): 11.5 s
- PTT LA (intrinsic system; IT Bivalirudin 2 mg/kg, 15 min): 9.4 s
- PTT LA (intrinsic system; IT Bivalirudin 2 mg/kg, 30 min): 8.2 s
- PTT LA (intrinsic system; IT Bivalirudin 2 mg/kg, 60 min): 11.9 s
- PTTCS (intrinsic system; [4]): 12.5 s
- PTTCS (intrinsic system; IT Bivalirudin 8 mg/kg, 3 min): 8.1 s
- PTTCS (intrinsic system; IT Bivalirudin 8 mg/kg, 15 min): 120 s
- PTTCS (intrinsic system; IT Bivalirudin 8 mg/kg, 60 min): 21.3 s
- PTT LA (intrinsic system; [4]): 10.3 s
- PTT LA (intrinsic system; IT Bivalirudin 8 mg/kg, 1 min): 8.4 s
- PTT LA (intrinsic system; IT Bivalirudin 8 mg/kg, 3 min): 11.9 s
- PTT LA (intrinsic system; IT Bivalirudin 8 mg/kg, 5 min): 11.3 s
- PTT LA (intrinsic system; IT Bivalirudin 8 mg/kg, 10 min): 9.5 s
- PTT LA (intrinsic system; IT Bivalirudin 8 mg/kg, 15 min): 9.6 s
- PTT LA (intrinsic system; IT Bivalirudin 8 mg/kg, 30 min): 9.9 s
- PTT LA (intrinsic system; IT Bivalirudin 8 mg/kg, 60 min): 13 s
- effect on aPTT (intrinsic system; IV): prolonged
- PTTCS (intrinsic system; [5]): 10.6 s
- PTTCS (intrinsic system; IV Bivalirudin 2 mg/kg, 3 min): 35.1 s
- PTTCS (intrinsic system; IV Bivalirudin 2 mg/kg, 15 min): 120 s
- PTTCS (intrinsic system; IV Bivalirudin 2 mg/kg, 60 min): 120 s
- PTT LA (intrinsic system; [5]): 9.7 s
- PTT LA (intrinsic system; IV Bivalirudin 2 mg/kg, 1 min): 42.4 s
- PTT LA (intrinsic system; IV Bivalirudin 2 mg/kg, 3 min): 36 s
- PTT LA (intrinsic system; IV Bivalirudin 2 mg/kg, 5 min): 26.3 s
- PTT LA (intrinsic system; IV Bivalirudin 2 mg/kg, 10 min): 23.8 s
- PTT LA (intrinsic system; IV Bivalirudin 2 mg/kg, 15 min): 19.1 s
- PTT LA (intrinsic system; IV Bivalirudin 2 mg/kg, 30 min): 15.7 s
- PTT LA (intrinsic system; IV Bivalirudin 2 mg/kg, 60 min): 11 s
- effect of inhaled drug on tested biomarkers (summary) [1]: showed NO
- half-life ([2]; as stated in b199): 1 to 2 h
- half-life ([2]; as stated in b211): 2 to 4 h

Reference: patent US11547663B2, “Unit aerosol doses for anticoagulation” (InCarda Therapeutics, Inc., priority 2015, dated 2023)
